According to paper PMC7046148 (Scientific Reports, 2020):

Tests used:
Gibco hiPSCs = assay: 3D chondrogenic differentiation after LPM differentiation, DMMB assay for sGAG; assay type: cell-based, human; conditions: during 2 d LPM differentiation, then 18 d chondrogenic differentiation; for sGAG/DNA content compared to the DMSO control: thalidomide 20 µM, atRA 3 µM; for reduction of sGAG/DNA content upon chondrogenic differentiation in 3D: thalidomide at 20 µM, atRA at 3 µM
Description: For 3D differentiation studies, Gibco hiPSCs were encapsulated in fibrin at 2–4 × 10^6 cells/mL. hiPSCs were passaged with Versene (as described above) and were suspended as small clumps in a solution composed of a 1:4:5:10 dilution of 200 mM CaCl2 in DI water, 50 U/mL human thrombin (Sigma) in 0.1% cell culture BSA in DI water, DPBS, and hiPSC suspension in mTeSR1. The hiPSC suspension was mixed by pipetting, and 0.5 µL droplets of suspended hiPSCs were plated at the bottom of each well of a round-bottom sterile polypropylene plate. hiPSC suspensions were subsequently diluted 5-fold by pipetting up and down in each well with 2 µL of 10 mg/mL human fibrinogen (Sigma) in DPBS (sterile filtered prior to use). Fibrin clot formation proceeded for 10 minutes at room temperature prior to addition of mTeSR-1 and incubation under normal culture conditions overnight. […] For chondrogenic differentiation experiments, cells were cultured in APEL2 + GSKi for the described duration, followed by culture in ACF MesenCult chondrogenic differentiation medium (Stem Cell Technologies) for 17–20 days under normal culture conditions. Encapsulated hiPSCs were characterized by qRT-PCR as described above, except cells were lysed by bead-based homogenization (Bead Mill 4, Thermo Fisher) in buffer RLT that was supplemented with 1% β-mercaptoethanol. RNeasy procedure was carried out per manufacturer’s instructions, including the optional DNase step. Purified RNA samples were stored at −20 °C before analysis using Taqman primer/probes (Thermo Fisher) and fast advanced master mix (Thermo Fisher) on a QuantStudio 5 (Thermo). Samples were compared using normalization to the ACTB in each sample and the control for each experiment using the 2^−ΔΔCT method.
Alternatively, encapsulated hiPSCs were characterized for sulfated glycosaminoglycan (sGAG) content using the dimethylmethylene blue (DMMB) assay protocol[33],[34]. […] After addition of DMMB assay buffer, samples were immediately read at 525 nm, and sGAG composition was calculated in each sample by comparison to a chondroitin sulfate standard that was dissolved in digestion buffer. sGAG content (in µg/mL) was normalized to dsDNA content (in µg/mL) in each sample.
Figure 7 Characterization of hiPSC chondrogenic differentiation in 3D by DMMB assay for sulfated glycosaminoglycans. Chondrogenic differentiation of hiPSCs was assessed by culturing hiPSCs in fibrin gels followed by culture in APEL2/GSKi and subsequent culture in chondrogenic differentiation medium for a total of 21 days in culture after encapsulation. The influence of the duration of LPM differentiation or of chemical treatment during LPM differentiation (for 2 days) on chondrogenic differentiation was assessed by sulfated glycosaminoglycan assay on day 21. […]

[1] = system: human pluripotent stem cells (hPSCs); conditions: cited from earlier work
XCL-1 hiPSC SALL4^G416A = assay: LPM differentiation assay (FOXF1 high content imaging), XCL-1 SALL4^G416A clone; conditions: Homo sapiens, 48 h, read-out: IC50 (±SEM) in LPM differentiation assay
Description: hiPSCs (Gibco or XCL-1 clones) were grown in mTeSR-1 on Matrigel, passaged into small clumps with Versene (4.5 min under normal culture conditions), counted as a single-cell suspension as described above, and seeded as small clumps at approximately 10,000 cells/well (30,000 cells/cm^2, ~15% confluence) in 100 µL mTeSR1 on Matrigel-coated µClear® 96-well plates (Greiner) for 1 d under normal culture conditions. On the day after seeding, the medium was replaced with 100 µL/well of mTeSR-1 (control) or APEL2 + GSKi containing either DMSO or diluted compounds (for a final DMSO concentration of 0.2%). The same conditions were replenished the following day for a total of 2 d of differentiation, and the following day (3 d after seeding), the medium was aspirated, and hiPSCs were fixed in 10% NBF for 15 min at room temperature.
Immunofluorescence staining was carried out by fixing/permeabilizing cells overnight in blocking buffer containing 3% BSA (Sigma) in DPBS-T, which contains DPBS + Ca^2+//Mg^2+ with 0.3% Triton-X100 (Sigma). Fixed and permeabilized cells were incubated in primary antibodies diluted (as noted in Table 1) in antibody buffer, consisting of 1% BSA in DPBS-T, overnight at 4 °C.
Cells were washed in blocking buffer for >6 hours at 4 °C and subsequently incubated in secondary antibody diluted in antibody buffer overnight at 4 °C. Secondary antibodies were washed out in antibody buffer for >4 h at 4 °C, and hiPSCs were counterstained with DAPI (Fisher) at 10 µg/mL in DPBS-T for 2 h. hiPSCs were washed in DPBS-T for >2 h at 4 °C, and immediately before imaging, the DPBS-T was replaced with DPBS. […] Chemical dose-response experiments and experiments examining the time-course of marker expression during LPM differentiation were imaged at 10X magnification using the Cellomics ArrayScan or CellInsight Cx7 LZR High Content Screening Platform and HCS Studio Cell Analysis Software (Thermo Fisher). An artificial threshold was uniformly applied to all images to generate the percentage of DAPI+ nuclei that stained positively for FOXF1 or NANOG. Thresholding for FOXF1 and T was performed relative to undiffer-entiated hiPSCs, and thresholding for SALL4 and OCT4 was performed relative to a non-expressing cell type (human primary endothelial cells). Settings for image acquisition and processing were uniformly applied between XCL-1 clones. […] Experiments were repeated in quadruplicate unless otherwise stated, and data are presented as mean ± SEM. Nonlinear regression analysis was performed using the 4-parameter [inhibitor]-vs-response curve fitting algorithm in Prism (GraphPad).
In addition, XCL-1 hiPSCs were engineered with CRISPR/Cas9 to express a homozygous SALL4 G416A mutation (hereafter referred to as the SALL4^G416A clone), and the homozygous SALL4 G416A mutation was confirmed by next-generation sequencing (Supplementary Fig. 2).

SALL4^G416A = target: T1, SALL4^G416A (Homo sapiens, UniProt Q9UJQ4, G416A); assay: SALL4 MFI by high content imaging, XCL-1 SALL4^G416A hiPSCs; assay type: cell-based; conditions: SALL4^G416A hiPSC clone, 8 h of treatment
T1 construct: parental hiPSCs were engineered to express a homozygous G416A mutation in the endogenous SALL4 locus; endogenous in cells; host or cells: XCL-1 SALL4^G416A hiPSC clone (1E6), CRISPR/Cas9 knock-in at the endogenous locus
Source text: High content imaging analysis of SALL4 immunofluorescence with DAPI counterstaining in hiPSCs. […] Data represent the mean +/− SEM from 2 independent experiments.

T1 sequence (Q96SW2 whole entry partner): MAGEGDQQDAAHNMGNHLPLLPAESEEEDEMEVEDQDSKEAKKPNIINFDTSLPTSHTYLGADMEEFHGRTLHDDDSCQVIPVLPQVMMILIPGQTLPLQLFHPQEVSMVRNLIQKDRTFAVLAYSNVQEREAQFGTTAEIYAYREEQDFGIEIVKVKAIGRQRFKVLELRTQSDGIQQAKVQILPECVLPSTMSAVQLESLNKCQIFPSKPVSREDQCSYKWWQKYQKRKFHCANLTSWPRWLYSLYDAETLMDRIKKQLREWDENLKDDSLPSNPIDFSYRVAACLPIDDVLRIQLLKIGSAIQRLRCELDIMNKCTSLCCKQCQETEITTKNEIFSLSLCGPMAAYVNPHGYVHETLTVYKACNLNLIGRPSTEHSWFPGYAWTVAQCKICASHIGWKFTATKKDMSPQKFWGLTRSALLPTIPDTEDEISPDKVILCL
T1 sequence (Q16531 whole entry partner): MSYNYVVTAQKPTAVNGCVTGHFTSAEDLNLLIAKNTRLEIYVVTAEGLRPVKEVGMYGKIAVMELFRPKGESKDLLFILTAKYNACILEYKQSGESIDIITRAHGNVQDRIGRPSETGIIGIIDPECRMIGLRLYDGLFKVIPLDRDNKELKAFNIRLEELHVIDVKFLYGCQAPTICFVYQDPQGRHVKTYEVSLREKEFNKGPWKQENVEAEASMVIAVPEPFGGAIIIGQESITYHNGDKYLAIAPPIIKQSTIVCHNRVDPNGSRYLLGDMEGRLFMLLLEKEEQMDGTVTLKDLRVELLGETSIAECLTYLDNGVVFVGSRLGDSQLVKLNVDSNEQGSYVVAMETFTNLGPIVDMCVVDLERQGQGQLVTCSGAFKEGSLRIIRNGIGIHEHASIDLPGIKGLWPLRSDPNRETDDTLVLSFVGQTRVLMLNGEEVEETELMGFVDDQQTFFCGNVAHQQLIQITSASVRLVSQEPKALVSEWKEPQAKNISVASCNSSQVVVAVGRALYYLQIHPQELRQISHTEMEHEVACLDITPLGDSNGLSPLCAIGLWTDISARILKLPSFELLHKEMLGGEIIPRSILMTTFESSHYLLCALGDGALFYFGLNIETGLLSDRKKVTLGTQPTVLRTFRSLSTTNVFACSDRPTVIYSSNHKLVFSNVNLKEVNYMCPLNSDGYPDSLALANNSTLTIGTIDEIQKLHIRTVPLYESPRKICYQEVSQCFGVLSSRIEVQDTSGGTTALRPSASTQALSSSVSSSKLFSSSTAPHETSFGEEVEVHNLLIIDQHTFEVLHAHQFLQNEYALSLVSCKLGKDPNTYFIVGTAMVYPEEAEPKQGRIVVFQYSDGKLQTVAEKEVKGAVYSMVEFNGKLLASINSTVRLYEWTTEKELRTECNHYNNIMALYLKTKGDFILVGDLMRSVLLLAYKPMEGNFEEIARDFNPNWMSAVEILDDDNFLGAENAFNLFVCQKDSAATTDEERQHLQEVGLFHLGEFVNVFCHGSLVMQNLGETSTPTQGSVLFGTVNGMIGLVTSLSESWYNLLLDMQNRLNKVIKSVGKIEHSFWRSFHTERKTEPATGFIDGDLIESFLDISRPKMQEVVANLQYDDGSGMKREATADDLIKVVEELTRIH
T1 sequence (Q9UJQ4 whole entry G416A): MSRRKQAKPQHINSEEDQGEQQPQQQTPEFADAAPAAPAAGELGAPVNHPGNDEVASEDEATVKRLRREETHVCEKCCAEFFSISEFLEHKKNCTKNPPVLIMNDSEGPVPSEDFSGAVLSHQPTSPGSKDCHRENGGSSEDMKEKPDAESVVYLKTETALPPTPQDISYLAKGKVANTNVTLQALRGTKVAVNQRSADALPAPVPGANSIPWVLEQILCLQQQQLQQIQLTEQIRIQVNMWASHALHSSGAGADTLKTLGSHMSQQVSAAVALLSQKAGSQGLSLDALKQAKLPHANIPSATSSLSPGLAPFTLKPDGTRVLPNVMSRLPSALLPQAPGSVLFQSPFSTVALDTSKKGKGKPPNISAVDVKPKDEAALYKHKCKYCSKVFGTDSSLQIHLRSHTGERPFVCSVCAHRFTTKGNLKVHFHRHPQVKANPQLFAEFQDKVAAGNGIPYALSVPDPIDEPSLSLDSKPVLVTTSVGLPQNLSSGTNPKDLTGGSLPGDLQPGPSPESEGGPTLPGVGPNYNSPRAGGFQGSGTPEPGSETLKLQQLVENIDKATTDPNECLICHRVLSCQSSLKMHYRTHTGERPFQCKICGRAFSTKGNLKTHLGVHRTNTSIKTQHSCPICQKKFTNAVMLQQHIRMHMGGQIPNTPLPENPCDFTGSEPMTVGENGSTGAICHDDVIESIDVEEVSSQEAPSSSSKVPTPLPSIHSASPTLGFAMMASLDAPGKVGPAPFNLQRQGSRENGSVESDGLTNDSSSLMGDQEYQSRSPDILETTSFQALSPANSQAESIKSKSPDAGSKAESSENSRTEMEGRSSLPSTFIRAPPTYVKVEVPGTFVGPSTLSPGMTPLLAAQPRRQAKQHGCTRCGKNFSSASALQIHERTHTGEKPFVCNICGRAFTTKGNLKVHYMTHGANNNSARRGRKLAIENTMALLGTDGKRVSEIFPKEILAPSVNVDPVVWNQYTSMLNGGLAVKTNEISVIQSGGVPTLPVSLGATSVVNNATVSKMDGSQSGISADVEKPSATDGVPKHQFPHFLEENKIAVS

IC50 (XCL-1 hiPSC SALL4^G416A) | effect on SALL4 MFI (SALL4^G416A) | Structure (SMILES) | sGAG/DNA content compared to the DMSO control (Gibco hiPSCs) | reduction of sGAG/DNA content upon chondrogenic differentiation in 3D (Gibco hiPSCs) | concentrations with cytotoxicity or functional effects on hPSCs and hPSC-derived mesoderm [1]
> 50 µM | unchanged | O=C1CCC(N2C(=O)c3ccccc3C2=O)C(=O)N1 (stereo not drawn) [Thalidomide, thalidomide] | decreased sGAG/DNA content | 30% | above 100 µM
9.1 ± 5.9 µM | unchanged | CC1=C(/C=C/C(C)=C/C=C/C(C)=C/C(=O)O)C(C)(C)CCC1 [atRA, all-trans retinoic acid] | decreased sGAG/DNA content | complete abolishment | –
